Measurements from patent US20230413824A1, “AGROCHEMICAL COMPOSITION COMPRISING 3-SUBSTITUTED PHENYLAMIDINE COMPOUNDS AND USE THEREOF” (PI INDUSTRIES LIMITED, priority 2020, published 2023).
Like-named read-outs stand apart in the source and are kept apart here.

Columns and labels:
Type in all cases: in vivo
[1] = test system: Botrytis cinerea; assay: Botrytis cinerea test in tomato (preventive, glasshouse); conditions: single compound, Conc. 0.1 ppm
[2] = test system: Phakopsora pachyrhizi; assay: Phakopsora pachyrhizi test in soybean (preventive, glasshouse); conditions: single compound
[3] = test system: Alternaria solani; assay: Alternaria solani test in tomato (preventive, glasshouse); conditions: for pest or weed control at 0.05 ppm / pest or weed control at 0.1 ppm: Alternaria solani
[4] = test system: Erysiphe cichoracearum; assay: Erysiphe cichoracearum test in cucumber (preventive, glasshouse); conditions: single compound
[5] = test system: Pyricularia oryzae; assay: whole plant or invertebrate; conditions: for Observed Efficacy: single compound, preventive spray, rice
[6] = test system: Septoria nodorum; assay: Parastagonospora nodorum/Septoria nodorum/Stagnospora nodorum test in wheat (preventive, glasshouse); conditions: single compound
Summary of the method: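 Greenhouse-raised young wheat sprayed preventively at stated rates, inoculated one day later with 2.8×10^6 Stagnospora nodorum inoculum, held at 22-25° C and 90-100% RH. Disease severity (0-100%) rated 3, 7 and 10 days after application; % control relative to untreated plants, with phytotoxicity also recorded.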

[7] = Conc. 0.05 ppm, soybean, preventive, Table D5
[8] = Table B3, single compound, Conc. 0.1 ppm, preventive
[9] = single compound, 0.05 ppm, preventive
[10] = single compound, 0.1 ppm, preventive
[11] = 0.05 ppm, preventive spray on cucumber
[12] = Pyricularia oryzae, read-out: Observed Efficacy

## CNC(=O)/C(=N/OC)c1ccccc1Oc1ccccc1 [Metominostrobin, metominostrobin]
[1]; Table F5, Botrytis cinerea in tomato, preventive, read-out: Observed Efficacy (%)
  pest or weed control at 0.1 ppm: 40%
[2]; Phakopsora pachyrhizi, Conc. 0.05 ppm, soybean, preventive, Table D4, read-out: Observed Efficacy (%)
  pest or weed control at 0.05 ppm: 45%
[2]; Phakopsora pachyrhizi, Conc. 0.1 ppm, soybean, preventive, Table D5, read-out: Observed Efficacy (%)
  pest or weed control at 0.1 ppm: 56%
[2]; [7]
  Observed Efficacy (%): 45%
[3]; single compound, 0.05 ppm, preventive spray, read-out: Observed Efficacy (%)
  pest or weed control at 0.05 ppm: 26%
[3]; single compound, 0.1 ppm, preventive spray, read-out: Observed Efficacy (%)
  pest or weed control at 0.1 ppm: 31%
[3]; single compound, Conc. 0.05 ppm, preventive spray, read-out: Observed Efficacy
  pest or weed control at 0.05 ppm: 26%
[3]; single compound, Conc. 0.1 ppm, preventive spray, read-out: Observed Efficacy
  pest or weed control at 0.1 ppm: 31%
[3]; [8]
  Observed Efficacy (%): 31%
[3]; Table B4, single compound, Conc. 0.05 ppm, preventive
  Observed Efficacy (%): 26%
[3]; Table B4, single compound, Conc. 0.1 ppm, preventive
  Observed Efficacy (%): 31%
[3]; [9]
  Observed Efficacy (%): 26%
[3]; [10]
  Observed Efficacy (%): 31%
[4]; Golovinomyces cichoracearum, 0.05 ppm, cucumber, preventive, read-out: Observed Efficacy (%)
  pest or weed control at 0.05 ppm: 14%
[4]; Golovinomyces cichoracearum, 0.1 ppm, cucumber, preventive, read-out: Observed Efficacy (%)
  pest or weed control at 0.1 ppm: 57%
[4]; [11]
  Observed Efficacy (%): 14%
[5]; [12]
  pest or weed control at 0.05 ppm: 17%
  pest or weed control at 0.1 ppm: 33%
[6]; Parastagonospora nodorum, 0.05 ppm, read-out: Observed Efficacy (%)
  pest or weed control at 0.05 ppm: 6%
[6]; Parastagonospora nodorum, 0.1 ppm, read-out: Observed Efficacy (%)
  pest or weed control at 0.1 ppm: 12%

## CO/C=C(/C(=O)OC)c1ccccc1COc1cccc(C(F)(F)F)n1 [Picoxystrobin, picoxystrobin]
[1]; preventive spray on tomato, % control vs untreated
  Observed Efficacy (%): 38%
[2]; 0.05 ppm, preventive spray on soybean
  Observed Efficacy (%): 20%
[2]; 0.1 ppm, preventive spray on soybean
  Observed Efficacy (%): 28%
[2]; Conc. 0.05 ppm, soybean, preventive, Table D4
  Observed Efficacy (%): 20%
[2]; [7]
  Observed Efficacy (%): 20%
[2]; Conc. 0.1 ppm, soybean, preventive, Table D4
  Observed Efficacy (%): 28%
[2]; Conc. 0.1 ppm, soybean, preventive, Table D5
  Observed Efficacy (%): 28%
[3]; Table B3, single compound, Conc. 0.05 ppm, preventive
  Observed Efficacy (%): 23%
[3]; [8]
  Observed Efficacy (%): 26%
[3]; [9]
  Observed Efficacy (%): 23%
[3]; single compound, 0.05 ppm, preventive spray
  Observed Efficacy (%): 23%
[3]; [10]
  Observed Efficacy (%): 26%
[3]; single compound, 0.1 ppm, preventive spray
  Observed Efficacy (%): 26%
[4]; 0.05 ppm, cucumber, preventive
  Observed Efficacy (%): 19%
[4]; [11]
  Observed Efficacy (%): 19%
[4]; 0.1 ppm, cucumber, preventive
  Observed Efficacy (%): 43%
[4]; 0.1 ppm, preventive spray on cucumber
  Observed Efficacy (%): 43%
[5]; Conc. 0.05 ppm
  Observed Efficacy: 16%
[5]; Conc. 0.1 ppm
  Observed Efficacy: 33%
[6]; 0.05 ppm
  Observed Efficacy (%): 12%
[6]; 0.1 ppm
  Observed Efficacy (%): 26%
